The text below walks through data of EPA's ToxValDB 9.5 (doi:10.2903/j.efsa.2017.4852).

Data set [1] deals with Anas platyrhynchos. As to conditions: acute; oral; unspecified; mortality.
The subject of data set [2] is Folsomia candida. To be noted: chronic/long-term; reproduction.
For data set [3], the system named is Rattus norvegicus.
Data set [4] deals with Colinus virginianus.
For data set [5], the system named is Mus musculus. As to conditions: acute; oral; mortality.
The subject of data set [6] is Bibionidae. To be noted: chronic/long-term; duration: 28 days.
The subject of data set [7] is Apis mellifera. As to conditions: acute, mortality.
Data set [8] deals with Oryctolagus sp. As to conditions: developmental; development.
The subject of data set [9] is Tagia sp. As to conditions: chronic/long-term; reproduction.
Data set [10] relates to Chrysoperla externa. The data set is described as follows: LR50; higher = less toxic. To be noted: not reported; mortality.

Each structure is given as a SMILES string.

With `CC#Cc1cc(C)nc(Nc2ccccc2)n1` [Mepanipyrim], the LD50 was more than 2250 mg/kg-day in data set [1]; more than 2650 mg/kg-day in data set [3] (acute, oral, mortality); more than 2250 mg/kg-day in [4] (acute, oral, mortality); more than 2650 mg/kg-day in data set [5]; more than 80 µg/piece in [7] (dermal); more than 50 µg/piece in [7] (oral, unspecified). The NOEC in data set [2] is 58.4 mg/kg; in data set [4] (reproduction developmental, reproduction), 100 mg/kg-day; in data set [6] it was 4.67 mg/kg; in data set [9], 113 mg/kg. Further, the LOAEL (in general, the lowest dose or exposure tested at which an adverse effect was seen) in data set [3] (chronic, morphology) is 2.45 mg/kg-day; in data set [3] (reproduction developmental, histopathology: nonneoplastic) it was 2.45 mg/kg-day. Further, the NOAEL (usually the highest tested level that showed no adverse finding) in data set [8] amounted to 10 mg/kg-day. This molecule also came in with an LR50 in [10] of more than 500 g/ha.
